The record followed here is ChEMBL document CHEMBL1909046, “DrugMatrix in vitro pharmacology data”.

Chain of Prostaglandin G/H synthase 1 (P23219 whole entry): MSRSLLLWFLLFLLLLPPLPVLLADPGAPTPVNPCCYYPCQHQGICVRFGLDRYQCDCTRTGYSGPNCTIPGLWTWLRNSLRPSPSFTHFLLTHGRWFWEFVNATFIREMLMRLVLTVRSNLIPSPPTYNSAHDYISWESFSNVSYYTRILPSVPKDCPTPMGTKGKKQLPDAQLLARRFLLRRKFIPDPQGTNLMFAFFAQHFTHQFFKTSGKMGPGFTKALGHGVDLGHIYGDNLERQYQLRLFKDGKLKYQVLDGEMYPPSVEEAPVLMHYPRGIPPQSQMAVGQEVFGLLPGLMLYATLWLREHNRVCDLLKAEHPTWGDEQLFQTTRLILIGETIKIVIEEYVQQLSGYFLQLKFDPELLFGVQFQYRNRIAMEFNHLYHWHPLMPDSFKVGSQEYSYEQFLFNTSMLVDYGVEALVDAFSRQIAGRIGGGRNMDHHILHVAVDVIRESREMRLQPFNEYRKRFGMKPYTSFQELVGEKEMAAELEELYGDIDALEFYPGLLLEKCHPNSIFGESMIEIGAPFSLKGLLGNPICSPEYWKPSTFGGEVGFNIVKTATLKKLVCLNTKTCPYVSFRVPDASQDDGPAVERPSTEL
Chain of Matrix metalloproteinase-9 (P14780 whole entry): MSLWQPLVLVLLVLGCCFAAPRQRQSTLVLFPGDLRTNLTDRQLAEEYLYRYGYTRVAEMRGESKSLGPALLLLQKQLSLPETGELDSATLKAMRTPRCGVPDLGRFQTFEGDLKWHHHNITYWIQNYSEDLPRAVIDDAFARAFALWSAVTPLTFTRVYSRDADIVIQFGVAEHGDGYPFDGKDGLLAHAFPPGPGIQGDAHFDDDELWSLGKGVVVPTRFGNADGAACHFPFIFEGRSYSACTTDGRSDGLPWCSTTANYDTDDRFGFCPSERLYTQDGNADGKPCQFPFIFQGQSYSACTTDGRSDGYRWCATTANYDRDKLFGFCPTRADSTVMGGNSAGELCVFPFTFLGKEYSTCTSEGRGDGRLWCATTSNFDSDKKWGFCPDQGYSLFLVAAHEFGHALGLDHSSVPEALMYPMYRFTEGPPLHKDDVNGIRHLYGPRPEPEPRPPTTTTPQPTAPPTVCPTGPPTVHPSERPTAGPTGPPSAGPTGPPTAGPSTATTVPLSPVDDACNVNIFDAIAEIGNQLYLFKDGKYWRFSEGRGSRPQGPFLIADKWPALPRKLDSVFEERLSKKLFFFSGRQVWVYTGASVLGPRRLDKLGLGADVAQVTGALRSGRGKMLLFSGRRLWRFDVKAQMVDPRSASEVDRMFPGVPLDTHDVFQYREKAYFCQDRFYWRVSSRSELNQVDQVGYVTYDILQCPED

The first assay has as its target T1, Alpha-1D adrenergic receptor (Homo sapiens, UniProt P25100). Also: in other assays of this panel Not Active means under 50% inhibition at 10 µM.
T1 sequence (P25100 whole entry): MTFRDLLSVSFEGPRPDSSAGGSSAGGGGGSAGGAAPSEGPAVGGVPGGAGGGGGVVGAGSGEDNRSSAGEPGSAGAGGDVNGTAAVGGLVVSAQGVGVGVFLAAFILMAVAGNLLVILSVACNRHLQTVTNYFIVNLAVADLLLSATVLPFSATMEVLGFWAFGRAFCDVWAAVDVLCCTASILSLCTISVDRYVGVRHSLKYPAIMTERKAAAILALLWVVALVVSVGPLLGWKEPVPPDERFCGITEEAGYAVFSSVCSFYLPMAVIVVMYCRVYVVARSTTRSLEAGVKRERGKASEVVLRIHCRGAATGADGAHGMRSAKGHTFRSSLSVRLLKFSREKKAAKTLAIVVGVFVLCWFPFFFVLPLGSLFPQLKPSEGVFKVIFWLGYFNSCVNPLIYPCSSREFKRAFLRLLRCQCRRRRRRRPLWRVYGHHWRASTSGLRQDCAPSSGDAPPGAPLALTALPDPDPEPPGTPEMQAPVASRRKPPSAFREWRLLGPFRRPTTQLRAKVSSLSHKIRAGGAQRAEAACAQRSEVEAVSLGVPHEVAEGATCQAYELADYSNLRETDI
Assay: not given
It counts as cell membranes, HEK293, Membrane. The note with it: hek293.
Take `Oc1cccc(O)c1O` [PYROGALLOL]: the IC50 entry was “Not Active”.

As for AURANOFIN, the IC50 result is recorded as “Not Active” and the Ki entry is reported as “Not Active”.

In the case of GADOPENTETATE DIMEGLUMINE, the IC50 entry was “Not Active” and the Ki entry is on record as “Not Active”.

For GENTAMICIN, the IC50 result was “Not Active” and the Ki result is on record as “Not Active”.

In the case of GRAMICIDIN, the IC50 result is given as “Not Active” and the Ki result is reported as “Not Active”.

Take NYSTATIN: the IC50 result is given as “Not Active” and the Ki result is “Not Active”.

The next assay has as its target Prostaglandin G/H synthase 1 (Homo sapiens, UniProt P23219). Description: biochemical. It counts as tissue-based, Platelet. The note with it: platelet.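 Also: inhibition of COX-1 enzyme activity, with arachidonic acid supplied as substrate; in other assays of this panel Not Active means under 50% inhibition at 10 µM.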
Consider `Oc1cccc(O)c1O` [PYROGALLOL], for which the IC50 entry was “Not Active”.

With AURANOFIN, the IC50 result was “Not Active” and the Ki entry was “Not Active”.

GADOPENTETATE DIMEGLUMINE: the IC50 result was “Not Active” and the Ki entry is listed as “Not Active”.

As to GENTAMICIN, the IC50 result is reported as “Not Active” and the Ki result is “Not Active”.

For the molecule GRAMICIDIN, the IC50 entry is “Not Active” and the Ki entry is “Not Active”.

For the molecule NYSTATIN, the IC50 result was “Not Active” and the Ki result is “Not Active”.

Test system in the next assay: not listed separately
Description: DRUGMATRIX: GABAA, Muscimol, Central radioligand binding (ligand: [3H] Muscimol). It counts as cell membranes, Rattus norvegicus, Wistar, Brain, Membrane. The note with it: Not Active = under 50% inhibition at 10 µM.
Consider `Oc1cccc(O)c1O` [PYROGALLOL], for which the IC50 result was “Not Active” and the Ki entry was “Not Active”.

As for AURANOFIN, the IC50 entry was “Not Active” and the Ki result was “Not Active”.

Take GADOPENTETATE DIMEGLUMINE: the IC50 entry is reported as “Not Active” and the Ki entry is on record as “Not Active”.

For the molecule GENTAMICIN, the IC50 entry was “Not Active” and the Ki result is reported as “Not Active”.

For the molecule GRAMICIDIN, the IC50 result is given as “Not Active” and the Ki result is reported as “Not Active”.

Turning to NYSTATIN, the IC50 result is on record as “Not Active” and the Ki result is listed as “Not Active”.

A further assay addresses Glycine receptor (Rattus norvegicus, UniProt P22771+P24524+P07727+P20781).
Assay: not given
Details: not given
It counts as cell membranes, Wistar, Spinal cord, Membrane.
For the molecule `Oc1cccc(O)c1O` [PYROGALLOL], the IC50 result is “Not Active”.

On to AURANOFIN, for which the IC50 entry is “Not Active” and the Ki entry is recorded as “Not Active”.

In the case of GADOPENTETATE DIMEGLUMINE, the IC50 entry is recorded as “Not Active” and the Ki result is reported as “Not Active”.

Take GENTAMICIN: the IC50 result is on record as “Not Active” and the Ki result is “Not Active”.

GRAMICIDIN: the IC50 result is listed as “Not Active” and the Ki result is “Not Active”.

On to NYSTATIN, for which the IC50 result is on record as “Not Active” and the Ki entry is listed as “Not Active”.

In a further assay the target is T2, Muscarinic acetylcholine receptor M4 (Homo sapiens, UniProt P08173). Also: in other assays of this panel Not Active means under 50% inhibition at 10 µM.
T2 sequence (P08173 whole entry): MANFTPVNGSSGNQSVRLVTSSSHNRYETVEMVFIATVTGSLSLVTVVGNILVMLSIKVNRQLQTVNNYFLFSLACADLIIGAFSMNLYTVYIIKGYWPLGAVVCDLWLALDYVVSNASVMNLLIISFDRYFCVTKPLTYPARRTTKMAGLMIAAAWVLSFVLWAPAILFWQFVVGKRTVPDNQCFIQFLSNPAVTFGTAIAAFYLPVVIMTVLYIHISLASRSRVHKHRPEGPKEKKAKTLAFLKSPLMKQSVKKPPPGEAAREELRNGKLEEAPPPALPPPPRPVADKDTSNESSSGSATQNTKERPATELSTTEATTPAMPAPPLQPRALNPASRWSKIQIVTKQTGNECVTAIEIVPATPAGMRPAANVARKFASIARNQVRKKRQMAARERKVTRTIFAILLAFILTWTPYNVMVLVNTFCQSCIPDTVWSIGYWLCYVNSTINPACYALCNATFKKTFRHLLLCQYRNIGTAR
Assay: not given
The conditions noted are these: cho-k1. It counts as cell membranes, CHO-K1, Membrane.
Take `Oc1cccc(O)c1O` [PYROGALLOL]: the IC50 entry is recorded as “Not Active”.

AURANOFIN: the IC50 entry was “Not Active” and the Ki entry is recorded as “Not Active”.

On to GADOPENTETATE DIMEGLUMINE, for which the IC50 entry is “Not Active” and the Ki result is reported as “Not Active”.

Regarding GENTAMICIN, the IC50 entry is given as “Not Active” and the Ki entry is recorded as “Not Active”.

Regarding GRAMICIDIN, the IC50 entry was “Not Active” and the Ki entry was “Not Active”.

NYSTATIN: the IC50 entry is on record as “Not Active” and the Ki result is recorded as “Not Active”.

Another assay concerns the target Matrix metalloproteinase-9 (Homo sapiens, UniProt P14780). Description: biochemical. It counts as cell-based.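 Also: inhibition of isolated MMP-9 enzyme activity toward a synthetic peptide substrate, from the DrugMatrix protease screening panel; in other assays of this panel Not Active means under 50% inhibition at 10 µM.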
Details: not given
In the case of `Oc1cccc(O)c1O` [PYROGALLOL], the IC50 result was “Not Active”.

AURANOFIN: the IC50 result was “Not Active” and the Ki entry was “Not Active”.

On to GADOPENTETATE DIMEGLUMINE, for which the IC50 result is given as “Not Active” and the Ki result is “Not Active”.

GENTAMICIN: the IC50 result is recorded as “Not Active” and the Ki result is on record as “Not Active”.

Consider GRAMICIDIN, for which the IC50 result is recorded as “Not Active” and the Ki result is “Not Active”.

Turning to NYSTATIN, the IC50 result was “Not Active” and the Ki result was “Not Active”.
